Laboratory results as given in patent US9168259B2 (GRÜNENTHAL GMBH, priority 2010, dated 2015).
pEC50: −log10 of the molar value. Like-named read-outs stand apart in the source and are kept apart here.

Tests used:
[1] = test system: rat; test: Low-intensity tail flick test (rat); format: in vivo; details: po, peroral
Procedure: Method II. Low-Intensity Tail Flick Test (Rat)
In the low-intensity tail flick test, the determination of the antinociceptive effect of the compounds according to the invention towards an acute noxious thermal stimulus is carried out by measuring the withdrawal reflex of the rat tail (tail flick) in response to a radiant heat beam (analgesia meter; model 2011 of the company Rhema Labortechnik, Hofheim, Germany) according to the method described by D'Amour and Smith (J. Pharm. Exp. Ther. 72, 74 79 (1941). To this end, the rats were placed in a plexiglass restrainer, and a low-intensity radiant heat beam (48° C.) was focused onto the dorsal surface of the tail root. The stimulus intensity was adjusted to result in a mean pre-drug control withdrawal latency of about 7 s, thus also allowing a supraspinal modulation of the spinally mediated acute nociceptive reflex. A cutoff time of 30 s was applied to avoid tissue damage. Male Sprague-Dawley rats (Janvier, Le Genest St. Isle, Frankreich) with weights of 200-250 g were used. 10 rats were used per group. Before administration of a compound according to the invention, the animals were pre-tested twice in the course of five minutes and the mean of these measurements was calculated as the pre-test mean. The antinociceptive effect was determined at 20, 40 and 60 min after peroral compound administration. The antinociceptive effect was calculated based on the increase in the tail withdrawal latency according to the following formula and is expressed as percentage of the maximum possible effect (MPE [%]): MPE=[(T1−T0)/(T2−T0)]*100
In this, T0 is the control latency time before and T1 the latency time after administration of the compound, T2 is the cutoff time and MPE is the maximum possible effect. Employing variant analysis (repeated measures ANOVA) allowed testing of statistically significant differences between the compounds according to the invention and the vehicle group. The significance level was set to p≦0.05. To determine the dose dependency, the particular compound according to the invention was administered in 3-5 logarithmically increasing doses, including a threshold dose and a maximum effective dose, and the ED50 values were determined with the aid of regression analysis. The ED50 calculation was performed at the time of maximum efficacy (usually 20 min after administration of the compounds).

[2] = target: T1, KCNQ2/3 channels (Homo sapiens, UniProt O43525+O43526); test: Fluorescence assay using a voltage sensitive dye (fluorimetry); format: cell-based
T1 construct: expressed in transfected cells

[3] = MPE = % of maximum possible effect
[4] = CHO-K1, plateau effect relative to saturated retigabine (50 μM) = 100%, CHO-K1 cells expressing KCNQ2/3, negative values = antagonistic, read-out: Fluorimetry % efficacy (retigabine = 100%)
[5] = CHO-K1 cells expressing KCNQ2/3, IC50 where % efficacy is negative, read-out: Fluorimetry EC50/IC50

T1 sequence (O43526 whole entry): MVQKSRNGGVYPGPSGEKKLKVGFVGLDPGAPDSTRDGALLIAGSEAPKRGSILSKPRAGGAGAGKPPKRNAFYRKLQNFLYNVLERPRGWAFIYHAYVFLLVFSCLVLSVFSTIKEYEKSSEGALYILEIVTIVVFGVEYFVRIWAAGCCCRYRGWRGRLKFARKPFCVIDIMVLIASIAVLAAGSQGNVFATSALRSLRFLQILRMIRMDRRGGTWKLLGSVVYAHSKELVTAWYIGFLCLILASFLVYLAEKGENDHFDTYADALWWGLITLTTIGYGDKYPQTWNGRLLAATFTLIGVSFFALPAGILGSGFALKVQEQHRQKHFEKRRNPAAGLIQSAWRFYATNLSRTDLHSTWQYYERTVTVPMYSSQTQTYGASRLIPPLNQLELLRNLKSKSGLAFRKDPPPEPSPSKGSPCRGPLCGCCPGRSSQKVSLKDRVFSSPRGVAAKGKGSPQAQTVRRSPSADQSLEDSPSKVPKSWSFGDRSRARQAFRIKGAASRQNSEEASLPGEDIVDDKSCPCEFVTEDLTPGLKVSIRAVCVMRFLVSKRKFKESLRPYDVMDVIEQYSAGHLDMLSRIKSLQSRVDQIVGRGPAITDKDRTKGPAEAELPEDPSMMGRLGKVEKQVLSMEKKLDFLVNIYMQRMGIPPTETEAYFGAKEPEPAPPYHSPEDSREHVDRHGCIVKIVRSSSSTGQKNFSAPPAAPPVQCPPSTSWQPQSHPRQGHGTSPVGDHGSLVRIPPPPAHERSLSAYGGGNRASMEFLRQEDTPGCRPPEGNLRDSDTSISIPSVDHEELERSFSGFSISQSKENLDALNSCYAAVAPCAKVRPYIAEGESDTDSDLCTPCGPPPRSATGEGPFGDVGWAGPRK
T1 sequence (O43525 whole entry): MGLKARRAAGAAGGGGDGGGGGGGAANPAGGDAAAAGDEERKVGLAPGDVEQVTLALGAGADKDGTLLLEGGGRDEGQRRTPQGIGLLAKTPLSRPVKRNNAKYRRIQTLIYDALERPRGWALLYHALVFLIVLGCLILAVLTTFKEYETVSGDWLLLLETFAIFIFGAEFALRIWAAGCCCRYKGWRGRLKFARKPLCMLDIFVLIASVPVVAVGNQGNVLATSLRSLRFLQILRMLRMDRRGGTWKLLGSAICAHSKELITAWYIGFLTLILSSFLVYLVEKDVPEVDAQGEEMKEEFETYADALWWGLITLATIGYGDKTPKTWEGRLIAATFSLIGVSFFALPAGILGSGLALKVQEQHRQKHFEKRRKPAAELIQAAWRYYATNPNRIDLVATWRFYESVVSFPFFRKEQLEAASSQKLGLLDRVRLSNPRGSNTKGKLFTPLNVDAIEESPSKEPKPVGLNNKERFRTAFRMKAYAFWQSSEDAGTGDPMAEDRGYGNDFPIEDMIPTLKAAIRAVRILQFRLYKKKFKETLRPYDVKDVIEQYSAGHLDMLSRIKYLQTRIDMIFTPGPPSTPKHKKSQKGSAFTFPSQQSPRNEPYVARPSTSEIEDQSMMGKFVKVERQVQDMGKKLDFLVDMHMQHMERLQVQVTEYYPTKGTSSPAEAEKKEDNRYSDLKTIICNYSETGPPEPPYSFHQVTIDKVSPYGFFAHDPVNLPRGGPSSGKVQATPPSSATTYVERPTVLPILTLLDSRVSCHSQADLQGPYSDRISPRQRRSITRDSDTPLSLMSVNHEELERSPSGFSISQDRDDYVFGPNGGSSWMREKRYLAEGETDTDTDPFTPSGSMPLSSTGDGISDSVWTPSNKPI

| SMILES | Emax [2, 4] [%] | pEC50 [2, 5] | other results |
| --- | --- | --- | --- |
| COc1nc(N2CCOCC2)cc(C)c1C(=O)NCc1cccc(F)c1 [Example 19, N-[(3-Fluorophenyl)-methyl]-2-methoxy-4-methyl-6-morpholin-4-yl-pyridine-3-carboxylic acid amide] | 155 | 6.13 | inhibition in vivo at 10 mg/kg [1, 3]: 79% |
| CCSc1nc(N2CCc3ccccc32)cc(C)c1C(=O)NCc1cccc(F)c1 [Example 305, 6-(2,3-Dihydro-1H-indol-1-yl)-2-ethylsulfanyl-N-[(3-fluorophenyl)-methyl]-4-methyl-pyridine-3-carboxylic acid amide] | 57 | – | – |
| Cc1cc(N2CCOCC2)nc(N(C)C)c1C(=O)NCCCC(F)(F)F [Example 246, 2-Dimethylamino-4-methyl-6-morpholin-4-yl-N-(4,4,4-trifluoro-butyl)-pyridine-3-carboxylic acid amide] | 173 | 5.39 | – |
| CCSc1nc(N2CCC(C(=O)O)CC2)cc(C)c1C(=O)NCc1cccc(F)c1 [Example 14] | 16 | – | – |
| CCSc1nc(N(C)Cc2ccncc2)cc(C)c1C(=O)NCc1cccc(F)c1 [Example 118, 2-Ethylsulfanyl-N-[(3-fluorophenyl)-methyl]-4-methyl-6-[methyl-(pyridin-4-yl-methyl)-amino]-pyridine-3-carboxylic acid amide] | 3 | – | – |
| COCCc1nc(N2CCOCC2)cc(C)c1C(=O)NCCCC(C)(C)C [Example 358, N-(4,4-Dimethyl-pentyl)-2-(2-methoxy-ethyl)-4-methyl-6-morpholin-4-yl-pyridine-3-carboxylic acid amide] | – | – | pEC50 [2]: 5.95; Emax ([2]; CHO-K1, read-out: Fluorimetry % efficacy (retigabine = 100%)): 234% |
| COc1nc(N2CCOC[C@H]2C)cc(C)c1C(=O)NCc1ccc(F)cc1 [Example 181, N-[(4-Fluorophenyl)-methyl]-2-methoxy-4-methyl-6-[(3R)-3-methyl-morpholin-4-yl]-pyridine-3-carboxylic acid amide] | 167 | 6.59 | – |
| CCSc1nc(N2CC3CC2CO3)cc(C)c1C(=O)NCc1cccc(F)c1 (centres unmarked) [Example 159, 2-Ethylsulfanyl-N-[(3-fluorophenyl)-methyl]-4-methyl-6-(3-oxa-6-azabicyclo[2.2.1]heptan-6-yl)-pyridine-3-carboxylic acid amide] | 149 | 5.90 | – |
| CCSc1nc(N2C3CCC2COC3)cc(C)c1C(=O)NCc1cccc(F)c1 [Example 345, 2-Ethylsulfanyl-N-[(3-fluorophenyl)-methyl]-4-methyl-6-(3-oxa-8-azabicyclo[3.2.1]octan-8-yl)-pyridine-3-carboxylic acid amide] | 200 | 6.91 | – |
| CCSc1nc(N2CCOCC2)cc(C)c1C(=O)NCc1ccc(COC)c(F)c1 [Example 147, 2-Ethylsulfanyl-N-[[3-fluoro-4-(methoxymethyl)-phenyl]-methyl]-4-methyl-6-morpholin-4-yl-pyridine-3-carboxylic acid amide] | 153 | 6.28 | – |
| CCSc1nc(N2CCOCC2)cc(C)c1C(=O)NCCCC(C)(C)F [Example 319, 2-Ethylsulfanyl-N-(4-fluoro-4-methyl-pentyl)-4-methyl-6-morpholin-4-yl-pyridine-3-carboxylic acid amide] | 233 | 6.46 | – |
| CCSc1nc(N2CCN(C3CC3)CC2)cc(C)c1C(=O)NCc1cccc(F)c1 [Example 73, 6-(4-Cyclopropyl-piperazin-1-yl)-2-ethylsulfanyl-N-[(3-fluorophenyl)-methyl]-4-methyl-pyridine-3-carboxylic acid amide] | 67 | 5.52 | – |
| CCSc1nc(N2CCOCC2)cc(C)c1C(=O)NCc1ccc2c(c1)COC2 [Example 289, N-(1,3-Dihydro-isobenzofuran-5-yl-methyl)-2-ethylsulfanyl-4-methyl-6-morpholin-4-yl-pyridine-3-carboxylic acid amide] | 129 | 5.55 | – |

The next lines start with results.

| Emax [2, 4] [%] | pEC50 [2, 5] | SMILES | other results |
| --- | --- | --- | --- |
| 215 | 6.69 | CCSc1nc(N2CCOCC2)cc(C)c1C(=O)NCCCC(C)C [Example 79, 2-Ethylsulfanyl-4-methyl-N-(4-methyl-pentyl)-6-morpholin-4-yl-pyridine-3-carboxylic acid amide] | inhibition in vivo at 10 mg/kg [1, 3]: 46% |
| 176 | 6.74 | CCCc1nc(N2CCOCC2)cc(C)c1C(=O)NCc1cccc(F)c1 [Example 10, N-[(3-Fluorophenyl)-methyl]-4-methyl-6-morpholin-4-yl-2-propyl-pyridine-3-carboxylic acid amide] | inhibition in vivo at 10 mg/kg [1, 3]: 81% |
| 160 | 7.25 | CCSc1nc(N2CCOCC2)cc(C)c1C(=O)NCc1cc(F)cc(F)c1 [Example 1, N-[(3,5-Difluoro-phenyl)-methyl]-2-ethylsulfanyl-4-methyl-6-morpholin-4-yl-pyridine-3-carboxylic acid amide] | inhibition in vivo at 4.64 mg/kg ([1]; dose 4.64 mg/kg, MPE = % of maximum possible effect): 78% |
| 144 | 6.66 | CCOc1nc(N2CCOCC2)cc(C)c1C(=O)NCc1cccc(F)c1 [Example 38, 2-Ethoxy-N-[(3-fluorophenyl)-methyl]-4-methyl-6-morpholin-4-yl-pyridine-3-carboxylic acid amide] | inhibition in vivo at 10 mg/kg [1, 3]: 61% |
| 169 | 7.16 | CCSc1nc(N2CCOCC2)cc(C)c1C(=O)NCc1ccc(F)c(F)c1 [Example 41, N-[(3,4-Difluoro-phenyl)-methyl]-2-ethylsulfanyl-4-methyl-6-morpholin-4-yl-pyridine-3-carboxylic acid amide] | inhibition in vivo at 6.81 mg/kg ([1]; dose 6.81 mg/kg, MPE = % of maximum possible effect): 92% |
| 171 | 6.87 | CCSc1nc(N2CCOCC2)cc(C)c1C(=O)NCc1cccc(F)c1 [Example 2, 2-ethylsulfanyl-N-[(3-fluorophenyl)-methyl]-4-methyl-6-morpholin-4-yl-pyridine-3-carboxylic acid amide] | ED50 ([1]; ED50 at time of maximum efficacy): 4.3 mg/kg |
| 244 | 7.38 | CCSc1nc(N2CCOCC2)cc(C)c1C(=O)NCCCC(C)(C)C [Example 67, N-(4,4-Dimethyl-pentyl)-2-ethylsulfanyl-4-methyl-6-morpholin-4-yl-pyridine-3-carboxylic acid amide] | inhibition in vivo at 10 mg/kg [1, 3]: 100% |
| 128 | 7.03 | Cc1cc(N2CCOCC2)nc(OCC2CC2)c1C(=O)NCc1ccc(Cl)cc1 [Example 271, N-[(4-Chlorophenyl)-methyl]-2-(cyclopropyl-methoxy)-4-methyl-6-morpholin-4-yl-pyridine-3-carboxylic acid amide] | – |
| 217 | 6.63 | CCSc1nc(N2CCO[C@@H](C)C2)cc(C)c1C(=O)NCCCC(C)(C)C [Example 274, N-(4,4-Dimethyl-pentyl)-2-ethylsulfanyl-4-methyl-6-[(2S)-2-methyl-morpholin-4-yl]-pyridine-3-carboxylic acid amide] | – |
| 192 | 6.63 | CCCCCCCNC(=O)c1c(C)cc(N2CCOCC2)nc1SCC [Example 209, 2-Ethylsulfanyl-N-heptyl-4-methyl-6-morpholin-4-yl-pyridine-3-carboxylic acid amide] | – |
| 132 | 6.63 | COc1nc(N2CCOCC2)cc(C)c1C(=O)NCc1cc(F)cc(F)c1 [Example 3, N-[(3,5-Difluoro-phenyl)-methyl]-2-methoxy-4-methyl-6-morpholin-4-yl-pyridine-3-carboxylic acid amide] | – |
| 186 | 6.89 | COc1nc(N2CCOC[C@H]2C)cc(C)c1C(=O)NCc1ccc(F)c(F)c1 [Example 226, N-[(3,4-Difluoro-phenyl)-methyl]-2-methoxy-4-methyl-6-[(3R)-3-methyl-morpholin-4-yl]-pyridine-3-carboxylic acid amide] | – |
| 210 | 7.24 | CCCc1nc(N2CCOC[C@H]2C)cc(C)c1C(=O)NCc1ccc(Cl)cc1 [Example 266, N-[(4-Chlorophenyl)-methyl]-4-methyl-6-[(3R)-3-methyl-morpholin-4-yl]-2-propyl-pyridine-3-carboxylic acid amide] | – |
| 191 | 6.61 | CCSc1nc(N2CCOCC2)cc(C)c1C(=O)NCCCc1ccccc1 [Example 53, 2-Ethylsulfanyl-4-methyl-6-morpholin-4-yl-N-(3-phenyl-propyl)-pyridine-3-carboxylic acid amide] | – |
